Values after ≈ are worked out from the molar mass of the structure shown. Like-named read-outs stand apart in the source and are kept apart here.
What was measured:
[1] = tested on: Staphyloccocus aureus subsp. aureus Rosenbach (ATCC 6538P); assay: broth microdilution assay (NCCLS), antibacterial activity; format: cell-based, Staphylococcus aureus; conditions: for MIC: S. aureus subsp. aureus Rosenbach, broth microdilution
Description: The antibacterial activity of purified everninomicins and conjugates was determined by the broth microdilution assay according to NCCLS guidelines using Staphyloccocus aureus subsp. aureus Rosenbach (ATCC 6538P) as the test organism.

[2] = target: T1, HygX (Streptomyces hygroscopicus, UniProt Q2MFS1); assay: tryptophan fluorescence quenching assay, hygromycin B binding to HygX; parameters: species or system S. hygroscopicus; conditions: 20° C.
T1 sequence (Q2MFS1 1-258): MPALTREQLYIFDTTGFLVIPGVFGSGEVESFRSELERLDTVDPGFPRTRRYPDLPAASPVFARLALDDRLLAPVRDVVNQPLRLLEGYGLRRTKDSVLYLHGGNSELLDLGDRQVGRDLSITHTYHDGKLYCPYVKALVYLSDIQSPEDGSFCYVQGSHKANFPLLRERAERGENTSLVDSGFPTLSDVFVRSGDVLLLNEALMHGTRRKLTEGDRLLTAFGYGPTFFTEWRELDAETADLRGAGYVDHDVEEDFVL
Description: The Kd of hygromycin B binding to HygX was determined by monitoring the quenching of intrinsic fluorescence from the single tryptophan residue of HygX upon hygromycin B binding. Using a Cary Eclipse Varian fluorescence spectrometer, sample fluorescence was measured at 20° C. with both emission and excitation slits set at 10 nm and detector voltage set to 800 V. The […] wavelength was set to 280 nm, and spectra collected were from 300 to 400 nm, with 350 nm used for calculating binding affinity. Each sample contained 990 μL of 0.5 μM HygX in 25 mM Tris (pH 7.4), 75 mM NaCl, 0.05 mM AKG, and 0.05 mM NiCl2, which was then mixed with 10 μL of hygromycin B (diluted in the above buffer) of varying concentrations. Spectra were measured in triplicate, and the experiment repeated three times. Because hygromycin B at higher concentrations has background fluorescence between 300 and 400 nm, the experiment was repeated using only buffer and subtracted from the measurement taken with HygX present. Change in fluorescence resulting from changing hygromycin B concentration was plotted against hygromycin B concentration and fit to a single binding-site model using Kaleidagraph Version 4.0.

[3] = tested on: M. carbonacea; assay: nalidixic acid concentration test for conjugation, survival of M. carbonacea; format: cell-based, Micromonospora carbonacea var aurantiaca
[4] = tested on: E. coli; assay: nalidixic acid concentration test for conjugation, growth of donor E. coli; format: cell-based, Escherichia coli
Description: M. carbonacea was grown on TSB agar (Oxoid™ Tryptone Soy Broth, 2% agarose) for 7 days at 30° C. Conjugal acceptor mycelia were prepared by inoculating a loop of mycelia into 10 mL of TSB medium in a 50 mL Falcon tube and incubating with shaking at 30° C. for 5 days. The culture was then centrifuged at 3000×g for 10 minutes and the pellet resuspended in 2 mL fresh TSB. 150 μL aliquots were transferred into sterile 1.5 mL Eppendorf tubes and homogenized using a sterile plastic cell homogenizer. Donor E. coli ET12567/pUZ8002 cells containing the gene replacement were prepared by inoculating 1% of a freshly prepared overnight LB culture into 10 mL LB medium in a 50 mL Falcon tube containing apramycin and kanamycin and grown to an OD600 of 0.4 at 37° C. with shaking. The culture was centrifuged at 3000×g for 10 minutes, and the pellet was washed three times with 10 mL fresh LB. After the final wash, the pellet was resuspended in 150 μL LB. 50 μL of donor E. coli was added to 150 μL of recipient M. carbonacea. The bacterial mixture was plated on AS1 agar (0.1% yeast extract, 0.5% soluble starch, 0.02% L-alanine, 0.02% L-arginine, 0.05% L-asparagine, 0.25% NaCl, 1% Na2SO4, 2% agarose at pH 7.5, supplemented with 10 mM MgCl2). The plates were then incubated at 37° C. for 1-2 hours until thoroughly dried. […]

[5] = Staphylococcus aureus, ATCC6538P, read-out: MIC

CCC1OC(=O)C[C@@H](O)[C@H](C)[C@@H](OC2OC(C)CC(N(C)C)C2O)[C@@H](CC=[N+]([O-])[C@@]2(C)C[C@@H](O[C@@H]3C[C@H](O[C@@H]([C@H](O)CC(=O)O)[C@@H](C)O)O[C@H](C)[C@H]3OC(=O)c3c(C)c(Cl)c(O)c(Cl)c3OC)O[C@@H](C)[C@H]2OC)C[C@@H](C)C(=O)/C=C/[C@]2(C)O[C@H]2[C@@H]1C (stereo partly shown)
MIC [1, 5]: 1 µg/mL (≈ 0.791 µM)

COC[C@H]1O[C@@H](O[C@@H]2OC[C@@H]3O[C@@]4(OC[C@@H](OC(=O)c5c(C)cc(O)cc5O)[C@@H]5OCO[C@H]54)O[C@H]3[C@H]2O)[C@@H](OC)[C@@H](O)[C@@H]1O[C@@H]1O[C@H](C)[C@H](OC)[C@H](O[C@@H]2O[C@H](C)[C@H]3O[C@]4(C[C@@H](O)[C@H](O[C@H]5C[C@@H](O[C@H]6C[C@](C)([N+](=O)[O-])[C@@H](OC)[C@H](C)O6)[C@H](OC(=O)c6c(C)c(Cl)c(O)c(Cl)c6OC)[C@@H](C)O5)[C@@H](C)O4)O[C@]3(C)[C@@H]2O)[C@H]1O [everninomicin A]
MIC [1, 5]: 1 µg/mL (≈ 0.613 µM)

CNC1CC(N)C(O)C(OC2OC(CO)C(O)C3OC4(OC(C(N)CO)C(O)C(O)C4O)OC23)C1O (stereo not shown) [hygromycin B]
Kd [2]: 3.4 ± 0.5 µM

CCn1cc(C(=O)O)c(=O)c2ccc(C)nc21 [nalidixic acid]
growth of M. carbonacea ([3]; nalidixic acid 12.5 μg/mL): substantially more
growth of M. carbonacea ([3]; nalidixic acid 25 μg/mL): stunted the growth
viability of M. carbonacea ([3]; nalidixic acid 50 μg/mL): not viable
growth of E. coli ([4]; nalidixic acid 12.5 μg/mL): stunted
growth of E. coli ([4]; nalidixic acid 25 μg/mL): stunted the growth

everninomicin H
activity against S. aureus ([1]; S. aureus): moderately active
MIC [1]: 16 µg/mL

— patent US10696996B2, “Biosynthesis of everninomicin analogs in Micromonospora carbonacea var aurantiaca” (VANDERBILT UNIVERSITY, priority 2015, dated 2020)
